Experimental data published in ChEMBL document CHEMBL1140850, “Structure-activity relationships of lipopolysaccharide sequestration in guanylhydrazone-bearing lipopolyamines” (Bioorg Med Chem, 2009).
Calls of active or inactive are those of the source. The rule behind the calls is not given here.

What was measured:
J774.A1 = test: Inhibition of LPS-induced NO production in mouse J774A1 cells by Griess assay; type: functional, cell-based
HEK293 = test: Inhibition of LPS-induced NF-kappaB nuclear transactivation in HEK293 cells coexpressed with TLR4 assessed as alkaline phosphatase activity by spectrophotometry; type: cell-based; conditions: Homo sapiens
Blood = test: Inhibition of Escherichia coli 0111:B4 LPS-induced proinflammatory cytokine production in human whole blood after 4 hrs; type: functional, tissue-based
Mus musculus [1] = test: Toxicity in Escherichia coli 0111:B4 LPS-induced lethality in CF1 mouse at 200 mg/kg, ip after 24 hrs; type: organism-based; design: dose 200 mg/kg, route intraperitoneal; conditions: in vivo
Mus musculus [2] = test: Toxicity in Escherichia coli 0111:B4 LPS-induced lethality in ip dosed CF1 mouse after 24 hrs; type: organism-based; conditions: in vivo

## CCCCCCCCCCCCCCCCNCCCNCCCCNCCCNCC/C=N/NC(=N)N
J774.A1
  Activity: Active
HEK293
  Activity: Active

## CCCCCCCCCCCCCCCCNC(=N)N/N=C/CCNCCCNCCCCNCCCN.O=C(O)C(F)(F)F
J774.A1
  Activity: Active
Blood
  Activity: Dose-dependent effect
Mus musculus [1]
  Activity: Non-toxic
Mus musculus [2]
  Activity: Dose-dependent effect
  LD100: 100 ng
